# Measurements as given in patent US12194022B2, “Use of amisulpride as an anti-emetic” (ACACIA PHARMA LIMITED, priority 2010, dated 2025).
# Entries after “also recorded” stand apart in the source; their conditions may differ.
# Columns and labels:
# ferrets [1] = experiment: Apomorphine-induced emesis in ferrets; type: in vivo, ferret
# Description: (§1) The method used to test antiemetic activity preclinically follows that described by Gardner et al. (Brit. J. Pharmacol., 116: 3158-3163, 1995) and uses ferrets.
# (§2) Sixty minutes before administration of the test substance, ferrets are placed in individual stainless steel cages (40×50×34 cm) with a grid floor. Then, the animals are challenged with apomorphine (0.25 mg/kg s.c.), morphine (0.4 mg/kg i.p.) or cisplatin (10 mg/kg i.p.) and immediately observed over at least a 2-hour period. Parameters recorded include: number of ferrets showing retches and vomits; latency to first retching; latency to first vomiting; number of retches; vomiting (number of vomits); number of emesis periods and mean duration of emesis periods. Retching is defined as a rhythmic respiratory movement against a closed glottis, while vomiting is defined as a forced expulsion of upper gastrointestinal contents.
# Where apomorphine is used as the emetogen, amisulpride (or vehicle) was administered subcutaneously (s.c. 30 minutes before administration of apomorphine). Animals (6 per group) were treated with vehicle or amisulpride at 1, 10, or 100 μg/kg given sub-cutaneously. The observation period was 2 hours after apomorphine administration.
# ferrets [2] = experiment: Morphine-induced emesis in ferrets; type: in vivo, ferret
# Description: as §1, §2
# Where morphine is used as the emetogen, amisulpride (n=6 per group) or vehicle (n=6) is administered intravenously 5 minutes before the administration of morphine. The observation period is 2 hours after administration of the morphine.
# ferrets [3] = experiment: Cisplatin-induced emesis in ferrets; type: in vivo, ferret
# Description: as §1, §2
# Where cisplatin is used as the emetogen, amisulpride (n=6 per group) or vehicle (n=6) is administered intravenously at least 5 minutes before the administration of cisplatin. The observation period is up to 72 hours, which allows effects on early and late phase emesis to be observed.
# More specifically, data are reported from an experiment in which the observation period was 3 hours following cisplatin challenge. Cisplatin induced the occurrence of retches and vomits in 7 and 5 of 9 animals tested respectively. The mean incidences were 79.8±22.2 retches, 3.0±1.1 vomits and 10.7±2.8 emetic periods. Retches and vomits occurred after 85 minutes 6 seconds±7 minutes 53 seconds and 86 minutes 39 seconds±10 minutes 28 seconds respectively amisulpride was given at 0.2, 0.6, 2 and 6 mg/kg. At 0.2 mg/kg the incidence of retches was 23.3±10.8 (a 71% decrease in mean value), of vomits 0.2±0.2 (a 93% decrease) and emesis periods 3.7±2.0 (a 65% decrease). At 0.6 mg/kg the incidence of retches was 62.5±59.0, vomits 1.3±1.1 and emesis periods 3.7±1.3. […] At 2.0 mg/kg the incidence of retches was 3.3±2.5, vomits 0.2±0.2 and emesis periods 0.5±0.3. […] At 6 mg/kg the incidences were 11.7±3.8 retches, 1.2±1.0 vomits and 3.7±1.3 emesis periods.
# As indicated above, droperidol is a known agent for the treatment of PONV.
# [4] = tested on: patients undergoing routine surgery; experiment: Phase IIa study of prophylaxis of post-operative nausea and vomiting; type: in vivo, human; details: single dose at the time of the operation; 24-hour period post-operation
# Description: A formulation of the invention was prepared, suitable for intravenous administration. It is a 2.5 mg/ml citrate-buffered solution (nominal pH 5.0) of amisulpride. The composition is given below.
# The effects of amisulpride are studied in patients undergoing routine surgery in a randomised, controlled, open-label phase IIa study of efficacy of a single dose as prophylaxis of post-operative nausea and vomiting. The primary endpoint is the incidence of nausea and vomiting in the 24-hour period post-operation. The drug is administered at the time of the operation. The secondary endpoints are the nausea and vomiting rates and severity (measured separately) over 0-2 hours, 2-6 hours and 6-24 hours post-operation. In addition, the use of rescue medication and safety/adverse events, are recorded.
# dog = details: cited from earlier work
# [5] = UKPAR Special Warnings and Precautions for Use; cited from earlier work
# [6] = amisulpride 1 μg/kg s.c. 30 minutes before apomorphine 0.25 mg/kg s.c., 2 hour observation
# [7] = amisulpride 3 mg/kg i.v. before morphine, 2 hour observation
# [8] = amisulpride 6 mg/kg i.v. before morphine
# [9] = amisulpride 6 mg/kg i.v. before morphine, 2 hour observation
# [10] = amisulpride 12 mg/kg i.v. before morphine, 2 hour observation
# [11] = amisulpride 0.2 mg/kg, 3 hours observation
# [12] = amisulpride 0.6 mg/kg, 3 hours observation
# [13] = amisulpride 2.0 mg/kg, 3 hours observation
# [14] = amisulpride 6 mg/kg, 3 hours observation
compound,measurement,setting,value
CCN1CCCC1CNC(=O)c1cc(S(=O)(=O)CC)c(N)cc1OC (centres unmarked) [Amisulpride],number of emesis periods,ferrets [1]; [6],1.5±0.6
same,number of retches,ferrets [1]; [6],6.0±2.2
same,number of vomits,ferrets [1]; [6],0±0
same,inhibition of apomorphine emesis,ferrets [1]; amisulpride 10 μg/kg s.c.,totally inhibited
same,inhibition of apomorphine emesis,ferrets [1]; amisulpride 100 μg/kg s.c.,totally inhibited
same,number of retches,"ferrets [2]; amisulpride 3 mg/kg i.v. 5 minutes before morphine 0.4 mg/kg i.p., 2 hour observation",28.7±7.1
same,incidence of vomits,ferrets [2]; [7],abolished the incidence of vomits
same,number of emesis periods,ferrets [2]; [7],5.2±1.4
same,decrease in emesis periods vs control,ferrets [2]; [8],56%
same,decrease in retches vs control,ferrets [2]; [8],~50%
same,decrease in vomits vs control,ferrets [2]; [8],72%
same,number of emesis periods,ferrets [2]; [9],3.3±1.1
same,number of retches,ferrets [2]; [9],17.8±6.8
same,number of vomits,ferrets [2]; [9],0.5±0.3
same,number of emesis periods,ferrets [2]; [10],5.7±1.5
same,number of retches,ferrets [2]; [10],31.7±11.2
same,number of vomits,ferrets [2]; [10],0.8±0.4
same,effect on emetic effects induced by morphine vs vehicle control,"ferrets [2]; i.v., 2 hour observation","reduces the emetic effects induced by morphine, in dose-dependent manner"
same,incidence of retches,"ferrets [3]; amisulpride 0.2 mg/kg i.v. before cisplatin 10 mg/kg i.p., 3 hours observation",23.3±10.8
same,decrease in emesis periods vs control,ferrets [3]; [11],65%
same,decrease in mean retches vs control,ferrets [3]; [11],71%
same,decrease in vomits vs control,ferrets [3]; [11],93%
same,emesis periods,ferrets [3]; [11],3.7±2.0
same,incidence of vomits,ferrets [3]; [11],0.2±0.2
same,efficacy compared with droperidol,ferrets [3]; amisulpride 0.6 mg/kg (one animal excluded) and 2 mg/kg vs droperidol 3 mg/kg given 5 minutes before cisplatin,better than droperidol at 3 mg/kg; also recorded: more effective than droperidol at 3 mg/kg
same,emesis periods,ferrets [3]; [12],3.7±1.3
same,incidence of vomits,ferrets [3]; [12],1.3±1.1
same,incidence of retches,"ferrets [3]; amisulpride 0.6 mg/kg, 3 hours observation, one animal had an early, exaggerated response",62.5±59.0
same,emesis periods,ferrets [3]; [13],0.5±0.3
same,incidence of retches,ferrets [3]; [13],3.3±2.5
same,incidence of vomits,ferrets [3]; [13],0.2±0.2
same,emesis periods,ferrets [3]; [14],3.7±1.3
same,incidence of retches,ferrets [3]; [14],11.7±3.8
same,incidence of vomits,ferrets [3]; [14],1.2±1.0
same,effect on emetic effects of cisplatin vs vehicle control,"ferrets [3]; i.v., 72 hour period, early and late stages","reduces the emetic effects of cisplatin, in dose-dependent manner"
same,"effect on nausea, vomiting and retching associated with PONV",[4],demonstrate the effect of amisulpride against the nausea as well as the vomiting and retching associated with PONV
same,effect on apomorphine-induced vomiting,dog,inhibit apomorphine-induced vomiting in the dog
same,effect on QT interval,[5],induces a dose dependent prolongation of the QT interval
